Test results published in patent US20240294508A1, “RIP1 MODULATORS INCLUDING AZETIDINE CYCLIC UREAS, PREPARATIONS, AND USES THEREOF” (SIRONAX LTD., priority 2021, published 2024).

Tested on: HT-29 cells
Experiment: HT29 cells 0FBS assay in vitro: TNF-α/SMAC mimetic/zVAD-FMK induced necroptosis, CellTiter-Glo cell viability (RIP1 inhibitory activity)
Format: cell-based
Conditions: Homo sapiens, FBS free medium, TNF-α (10 ng/ml) + SMAC mimetic (6 uM) + zVAD-FMK (10 μM), 20 hours, geometric mean EC50
Description: Protocol for HT29 Cells 0FBS Assay In Vitro
• Cell line: HT-29 (ATCC® HTB-38™) • Culture medium: McCOY's 5A, Gibco, Cat No. 16600-082 • FBS, Gibco, Cat No. 10099-141C • Trypsin: Gibco, Cat No. 25200-056 • DMSO: Sigma, Cat No. 67-68-5, 1L • Assay plate: Corning #3903 • Compound dilution plate: Corning #3357 • Inducers: TNFα, GenScript, Cat No. Z01001-50, • SmacM, Cat. No., HY-15989, MedChemExpress (MCE) • Z_VAD FMK, TargetMol, T6013 • Cell Titer-Glo® Luminescent Cell Viability Assay Kit: Promega, Cat No. G7573 • EnVision: PerkinElmer, 2105-0010
2. Cell Seeding of HT-29 Cells
1) HT-29 cells were checked every day to make sure they are healthy and growing as expected. They were split sub-culturing when were approximately 80% confluent.
2) First pre-warm the culture medium of McCOY's 5A medium (Gibco, Cat No. 16600-082) with 10% FBS (Gibco, Cat No. 10099-141C) in 37° C. water bath for at least 30 min.
3) Growing cells to desired level of confluency 80% in a T75 flask, aspirate the medium, and wash with warm PBS two times.
4) Add 2-3 ml fresh warm trypsin (Gibco, Cat No. 25200-056) solution. Transfer the flask to a 37° C. incubator.
5) After 5 minutes, tap the side of the flask, and examine the flask under a microscope for lifting. If necessary, return the cells to the incubator for an additional 5-10 minutes, with occasional tapping, until lifting is complete.
6) Quickly neutralize the trypsin reaction by adding 6-9 ml cell culture medium, then transfer the cells to sterile 15 ml conical tubes. Pellet the cells by centrifugation at 300×g for 7 minutes, then decant the supernatant.
7) Resuspend the cells in fresh cell culture medium. Do cell counting with hemocytometer.
8) Seed 100 μl of 5,000 cells into each well of the sterile 96-well cell culture plate (Corning 3903) and culture overnight at 37° C. with 5% CO2.
3. Compounds Titration and Treatment of HT-29 Cells
1) All batches of compounds (CPDs0 (e.g., compound 1-169) were dissolved in DMSO (Dimethyl sulfoxide) as 20 mM stock solution.
2) Take 3 ul 20 mM stock solution of CPDs to […] DMSO and mix well, continue the titration ratio of 1:3 (20 ul CPDs+40 ul DMSO), e.g., to give solutions of CPDS at 6.6 mM, 2.2 mM, etc., till the 10 points end.
3) Take out assay plates with HT-29 cells from incubator, remove all culture medium then wash 1 time with 1×PBS, and change fresh McCOY's 5A medium of FBS free with a cocktail of TNF-α (10 ng/ml), the SMAC mimetic (6 uM) and zVAD-FMK (10 μM) to stimulate the HT-29 cells to increase pRIPK1 levels and necroptosis.
4) Add 0.5 μL of the diluted compound to the corresponding 96-well assay plates.
5) Incubate the assay plates for 20 hours at 37° C. with 5% CO2.
4. Performing Cell Viability Detection of HT-29 Cells after Treated with Compounds
1) The CellTiter-Glo® Luminescent Cell Viability Assay was employed to detect the ATP levels of viable HT-29 cells.
2) Equilibrate the CellTiter-Glo® buffer and the lyophilized substrate to room temperature prior to use.
3) Resuspend the CellTiter-Glo® substrate with CellTiter-Glo® buffer, mix by gently vortexing to obtain a homogeneous solution.
4) Pipette 20 μl the enzyme/substrate mixture by multi-channel pipette into the 96-well assay plates from step 5) under the Compounds titration and treatment stage.
5) Place the plates on an orbital shaker and mix the contents for 3 minutes to induce cell lysis.
6) Then allow the plates to incubate at room temperature for 10 minutes to stabilize luminescent signal.
7) Read and record luminescence signal with EnVision.
8) The geometric mean EC50 of the compounds were calculated from 10 points response dose with duplicate. In Table 2, activity is provided as follows: +++=0.1 nM≤EC50<100 nM; ++=100 nM≤EC5 1000 nM; […].

Row | SMILES | EC50 [nM]
1 | Cn1cccc(-c2cc(OC3CN(C(=O)N4N=CC[C@H]4c4cc(F)cc(F)c4)C3)c(F)cn2)c1=O (stereo in doubt) [Compound 169, 4-((1-(5-(3,5-difluorophenyl)-4,5-dihydro-1H-pyrazole-1-carbonyl)azetidin-3-yl)oxy)-5-fluoro-1′-methyl-[2,3′-bipyridin]-2′(1′H)-one] | 100 to 1000
2 | Cn1nccc1-c1ncc(F)c(OC2CN(C(=O)N3N=CC[C@H]3c3cc(F)cc(C#N)c3)C2)n1 [Compound 1, (S)-3-fluoro-5-(1-(3-((5-fluoro-2-(1-methyl-1H-pyrazol-5-yl)pyrimidin-4-yl)oxy)azetidine-1-carbonyl)-4,5-dihydro-1H-pyrazol-5-yl)benzonitrile] | 0.1 to 100
3 | Cn1nccc1-c1ncc(F)c(OC2CN(C(=O)N3N=CC[C@H]3c3cncc(F)c3)C2)n1 [Compound 2, (S)-(3-((5-fluoro-2-(1-methyl-1H-pyrazol-5-yl)pyrimidin-4-yl)oxy)azetidin-1-yl)(5-(5-fluoropyridin-3-yl)-4,5-dihydro-1H-pyrazol-1-yl)methanone] | 0.1 to 100
4 | Cc1noc(C)c1-c1ncc(F)c(OC2CN(C(=O)N3N=CC[C@H]3c3cc(F)cc(C#N)c3)C2)n1 [Compound 3, (S)-3-(1-(3-((2-(3,5-dimethylisoxazol-4-yl)-5-fluoropyrimidin-4-yl)oxy)azetidine-1-carbonyl)-4,5-dihydro-1H-pyrazol-5-yl)-5-fluorobenzonitrile] | 0.1 to 100
5 | Cc1noc(C)c1-c1ncc(F)c(OC2CN(C(=O)N3N=CC[C@H]3c3cncc(F)c3)C2)n1 [Compound 4, (S)-(3-((2-(3,5-dimethylisoxazol-4-yl)-5-fluoropyrimidin-4-yl)oxy)azetidin-1-yl)(5-(5-fluoropyridin-3-yl)-4,5-dihydro-1H-pyrazol-1-yl)methanone] | 0.1 to 100
6 | Cn1ncc(F)c1-c1cc(OC2CN(C(=O)N3N=CC[C@H]3c3cc(F)cc(C#N)c3)C2)c(F)cn1 [Compound 5, (S)-3-fluoro-5-(1-(3-((5-fluoro-2-(4-fluoro-1-methyl-1H-pyrazol-5-yl)pyridin-4-yl)oxy)azetidine-1-carbonyl)-4,5-dihydro-1H-pyrazol-5-yl)benzonitrile] | 0.1 to 100
7 | Cn1ncc(Cl)c1-c1cc(OC2CN(C(=O)N3N=CC[C@H]3c3cc(F)cc(C#N)c3)C2)c(F)cn1 [Compound 6, (S)-3-(1-(3-((2-(4-chloro-1-methyl-1H-pyrazol-5-yl)-5-fluoropyridin-4-yl)oxy)azetidine-1-carbonyl)-4,5-dihydro-1H-pyrazol-5-yl)-5-fluorobenzonitrile] | 0.1 to 100
8 | Cn1nccc1-c1cc(OC2CN(C(=O)N3N=CC[C@H]3c3cc(F)cc(C#N)c3)C2)c(F)cn1 [Compound 7, (S)-3-fluoro-5-(1-(3-((5-fluoro-2-(1-methyl-1H-pyrazol-5-yl)pyridin-4-yl)oxy)azetidine-1-carbonyl)-4,5-dihydro-1H-pyrazol-5-yl)benzonitrile] | 0.1 to 100
9 | Cn1ncc(C#N)c1-c1ncc(F)c(OC2CN(C(=O)N3N=CC[C@H]3c3cc(F)cc(C#N)c3)C2)n1 [Compound 8, (S)-5-(4-((1-(5-(3-cyano-5-fluorophenyl)-4,5-dihydro-1H-pyrazole-1-carbonyl)azetidin-3-yl)oxy)-5-fluoropyrimidin-2-yl)-1-methyl-1H-pyrazole-4-carbonitrile] | 0.1 to 100
10 | Cn1ncc(C#N)c1-c1cc(OC2CN(C(=O)N3N=CC[C@H]3c3cc(F)cc(C#N)c3)C2)c(F)cn1 [Compound 9, (S)-5-(4-((1-(5-(3-cyano-5-fluorophenyl)-4,5-dihydro-1H-pyrazole-1-carbonyl)azetidin-3-yl)oxy)-5-fluoropyridin-2-yl)-1-methyl-1H-pyrazole-4-carbonitrile] | 0.1 to 100
11 | Cn1ncc(C(N)=O)c1-c1cc(OC2CN(C(=O)N3N=CC[C@H]3c3cc(F)cc(C#N)c3)C2)c(F)cn1 [Compound 10, (S)-5-(4-((1-(5-(3-cyano-5-fluorophenyl)-4,5-dihydro-1H-pyrazole-1-carbonyl)azetidin-3-yl)oxy)-5-fluoropyridin-2-yl)-1-methyl-1H-pyrazole-4-carboxamide] | 100 to 1000
